One experiment concerns CSN complex. Description: Reciprocal co-immunoprecipitation (anti-CSN3, anti-GFP) of Cer fusions in HAP1 cells. As to conditions: peptides fused to Cer expressed in HAP1 cells; anti-CSN3 and anti-GFP pull-downs. The class given is cell-based. From the text: To clarify the ability of C-CSNAP peptides to displace CSNAP in cells, we stably expressed four versions of CSNAP, the 16AA and 20AA C-CSNAP, D42E and scrambled peptides fused to the fluorescent protein Cer in HAP1 cells. As control, we used HAP1 cells expressing Cer only. We then performed reciprocal co-immunoprecipitation analyses, using antibodies against CSN3 and GFP recognizing Cer (Figs 6A and S5). […] This is reflected by the higher intensity of the GFP band upon CSN3 pull down, and by the more intense CSN3 band following GFP co-immunoprecipitation.
(§1) Figure 6. Expression of C-CSNAP reduces cellular proliferation rate. (A) Immunoprecipitation analysis using anti-GFP antibody recognizing cerulean (Cer) from lysates of cells expressing the Cer-fused 16AA, 20AA, D42E, and scrambled C-CSNAP in HAP1 WT cells. The COP9 signalosome complex was pulled down from all cells, except when Cer is expressed alone or fused to the scrambled C-CSNAP. Similarly, reciprocal immunoprecipitation by an anti-CSN3 antibody pulled down only the Cer-fused 16AA, 20AA, or D42E C-CSNAP. (B) Stable overexpression of 16AA and 20AA C-CSNAP–Cer in HAP1 WT cells reduces their rate of proliferation. […] One-way ANOVA (P < 0.05) with Dunnett’s multiple comparisons test was used to compare means *P < 0.05, **P < 0.01.
Figure S5. […]

The next experiment relates to HAP1 WT cells. In words: Resazurin-based cell proliferation assay. As to conditions: HAP1 WT cells stably expressing Cer fusions, 24 h after plating, five independent experiments.
Excerpt: as §1, with “0.01. […]” for “0.01.”
HAP1 WT cells stably expressing Cer, 16AA, and 20AA C-CSNAP–Cer were trypsinized and counted. […] Fluorescence intensities at 560/600 nm (ex/em) were measured, and average intensities of four replicates in each plate were calculated, normalized against WT after background subtraction, and normalized values from five independent experiments were compared on a bar graph with SEM. Significance was calculated using repeated measurment one-way ANOVA (P < 0.05) with Dunnett’s multiple comparisons test was used to compare means to Cer as control *P < 0.05, **P < 0.01.
Background: Resazurin is reduced to fluorescent resorufin, in cell work by metabolically active cells.

A further experiment deals with CSN complex (CSN5). In words: Co-immunoprecipitation (anti-GFP) of transiently expressed Cer fusions in HAP1 WT cells. The class given is cell-based. The following applies: transient expression of Cer fusions, anti-GFP pull-down, CSN5/GFP densitometry, at least three experiments. From the text:
To define whether C-CSNAP can displace the endogenous CSN subunit from the complex, we transiently expressed several versions of C-CSNAP peptides with differing lengths, fused to the fluorescent protein cerulean (Cer) in WT HAP1 cells (Fig 2A) and cells lacking CSNAP (ΔCSNAP cells) (Fig S2A). We then performed co-immunoprecipitation analyses, using an antibody against GFP that recognizes the Cer tag (Figs 2B and C and S2B). […] Moreover, in ΔCSNAP cells, all C-CSNAP derivatives were efficiently incorporated into CSN (Fig S2B), whereas in WT cells, differential integration was observed (Fig 2B). […] Truncations of the 16 amino acid stretch from either end decreased or abolished the incorporation efficiency (Fig 2B and C).
Figure 2. The last 16 amino acids of CSNAP efficiently displace the endogenous CSNAP subunit. (A) The different CSNAP C-terminal sequences that were examined. The 16 amino acid sequence is highlighted in blue, and the N- or C-terminally truncated forms are labelled in green and magenta, respectively (numbering of residues are corresponding to full length CSNAP). […] (C) Quantification of the densitometry results of at least three independent immunoprecipitation experiments using an anti-GFP antibody, represented as mean ratios of immunoprecipitated CSN5/GFP, followed by normalization to the sample transfected with Cer, plotted as mean ± SEM. […]

The target of experiment [1] is CSN^ΔCSNAP complex. Description: BIAcore surface plasmon resonance biosensor assay. The following applies: C-terminally biotinylated peptide immobilized on SA chip, CSN^ΔCSNAP 1-8 nM injected, 180 s binding, 1,000 s dissociation, 25°C, 1:1 binding fit. An excerpt: To validate the peptide array results, we used the surface plasmon resonance biosensor (Biacore) method to measure the binding affinities between C-CSNAP peptides and CSN^ΔCSNAP. We selected three peptides, the 16 residue C-terminal fragment (^42[…]^57, 16AA C-CSNAP) (Fig 4B), the 20 amino acid peptide (^38[…]^57, 20AA C-CSNAP) (Fig 4C), and a peptide containing the substitution of Asp to Glu at position 42 (D42E C-CSNAP) (Fig 4D). As a positive control, we used full-length CSNAP (Fig 4A), and a scrambled peptide ([…]) (Fig 4E) was used as a negative control. Interaction between the CSN^ΔCSNAP complex and the CSNAP variants was measured using a setting of 180 s binding followed by 1,000 s dissociation time (Fig 4).
Figure 4. C-CSNAP peptides display high affinity towards the CSN^ΔCSNAP complex. […] (F) Binding rate constants and affinities were determined via Biacore Evaluation Software analysis of SPR sensograms. […]
The experiments were carried out using Biacore SA200 SPR sensor (Biacore, GE Healthcare) with control software version 1.1 and Cytiva Series S Sensor chip SA. […] Data were analyzed in SA200 evaluation software version 1.1, with automatic fitting using parameter setting 1:1 binding (ka, kd, and tc global fit, Rmax and RI local fit).

For another experiment, the system named is recombinant CSN complex. Description: Peptide array screen of C-CSNAP peptides with recombinant CSN (rCSN^WT).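 Further: densitometric signal of CSN bound to each synthesized peptide spot, with an antibody-only array lacking CSN run to exclude non-specific binding, higher values meaning stronger binding.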 It is filed as binding.
The test system of experiment [2] is CSN^ΔCSNAP complex. In words: Peptide array screen of C-CSNAP peptides with rCSN^ΔCSNAP.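 Further: Array-printed peptides incubated with 0.5 µM CSN^ΔCSNAP, bound complex detected by anti-CSN3 antibody plus HRP-linked secondary, spot intensity expressed relative to the parent reference peptide spot.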 The class given is binding. The following applies: peptide array, rCSN^ΔCSNAP; average of 5 experiments, left and right spots.
Protocol: Peptide array screen of modified C-CSNAP peptides. C-CSNAP peptide and its derivatives were printed on a microarray. The array was blocked and incubated with or without the CSN∆CSNAP complex and probed using an anti-CSN3 antibody and HRP-conjugated secondary antibody. To assess non-specific binding of the antibodies to the array, anti-CSN3 and anti-GAR-HRP were used without the addition of the COP9 signalosome complex (CSN). Signal intensity of each spot was measured and normalized to the intensity of the spot of C-CSNAP (A1). Measured values for each spot were averaged from six arrays and plotted with standard errors SEM.
Intensity values are normalized to the intensity of the 16AA C-CSNAP peptide (A1) on each array from three independent experiments in duplicates, and averages from the six replicates are calculated with SEM.
Optimization of C-CSNAP sequence for enhanced binding to recombinant CSN^ΔCSNAP was screened by printing the modified sequences of CSNAP or C-CSNAP (Phe to Trp, Asp to Glu, Ala screen, D-amino acid screen, N-α-methylation, and Aib incorporation on INTAVIS Celluspots array [2 × 384spots]). The array was blocked with 5% skim milk in TBS-0.5% Tween 20 (TBS-T) for 4 h at room temperature, washed three times in TBS-T, and then incubated with 0.5 μM CSN^ΔCSNAP in 5% milk–TBS-T. Bound CSN^ΔCSNAP was visualized by incubating with anti-CSN3 (ab79698) antibody (1:10,000, overnight) and goat-anti-rabbit-HRP secondary antibody (1:10,000, 1 h).

Where no end group is shown, it is not given here.

In the case of “20AA C-CSNAP–Cer: 20AA C-CSNAP fused to the fluorescent protein cerulean (Cer), expressed in HAP1 cells (AVHADFFNDFEDLFDDDDIQ; also: fused to Cerulean, end not given here)”, in the experiment with CSN complex, the “integration into the CSN complex, based on band intensities, in words” value was “highest ability to integrate into CSN”. In addition, the “cell proliferation compared with cells expressing only Cer, in words” value in the experiment on HAP1 WT cells is “significant reductions in cell proliferation”.
On to “16AA C-CSNAP–Cer: 16AA C-CSNAP fused to the fluorescent protein cerulean (Cer), expressed in HAP1 cells (DFFNDFEDLFDDDDIQ; also: C-terminal fusion to Cerulean via Gly-Ser-Gly-Ser linker)”, for which the “association with / incorporation into the CSN complex, in words” value with CSN complex (CSN5) is given as “highest degree of association with the CSN complex”. In addition, the “integration into the CSN complex, based on band intensities, in words” value in the experiment with CSN complex is reported as “lower”. In addition, the “cell proliferation compared with cells expressing only Cer, in words” value with HAP1 WT cells is on record as “significant reductions in cell proliferation”.
As to IDGENVSNLDYARKAT [scrambled peptide], the Kd result on CSN^ΔCSNAP complex [1] is recorded as “No measurable binding”.
Regarding “EFFNEFEDLFEDDDIQ [Position D12, C-CSNAP, Asp to Glu substitution D42,52E]”, the “Average fold change, intensities as fold of C-CSNAP (A1)” value in the experiment with recombinant CSN complex (rCSN^WT on INTAVIS Celluspots array, anti-CSN3 and HRP secondary antibody, average of six replicates (three independent experiments in duplicates)) was 0.7025 fold of C-CSNAP (A1). Besides, the Average fold change with CSN^ΔCSNAP complex [2] is given as 1.0147 fold of C-CSNAP (A1).
On to EFFNDFEDLFEEEDIQ [D42,52,53,54E], for which the Average fold change in the experiment with recombinant CSN complex (peptide array with rCSN, average of 3 experiments, left and right (n = 6), fold of C-CSNAP (A1)) is given as 0.7432 fold; with CSN^ΔCSNAP complex [2], 1.1111 fold of C-CSNAP (A1).

Values taken from paper PMC10355216, “The C-terminal tail of CSNAP attenuates the CSN complex” (Life Science Alliance, 2023).
